In article PMC12250071, “Cloning, Expression and Functional Characterization of V. vinifera CAT2 Arginine Transporter” (International Journal of Molecular Sciences, 2025):

Molecular target: T1, VvCAT2
T1 construct: gene CAT2; full-length, C-terminal 6His, reconstituted in proteoliposomes
Test: competitive inhibition of [3H]arginine uptake in proteoliposomes with purified transporter (Lineweaver-Burk); also transported as [3H]ornithine
Type: biochemical, Vitis vinifera

NCCC[C@H](N)C(=O)O [ornithine]
Ki: 2200 ± 500 µM
